# Laboratory results published in ChEMBL document CHEMBL1140781, “4-Aminopyridine derivatives with anticholinesterase and antiamnesic activity” (Bioorg Med Chem Lett, 2008).
# pKi: −log10 of the molar value.
# How the values were obtained:
# [1] = target: Acetylcholinesterase (Homo sapiens, UniProt P22303); assay: Inhibition of acetylcholinesterase
# [2] = target: Cholinesterase (Homo sapiens, UniProt P06276); assay: Inhibition of butyrylcholinesterase
# [3] = tested on: Rattus norvegicus; assay: Antiamnesic activity in scopolamine-induced memory deficit rat assessed as training trial latency time at 0.02 mg/kg, ip; format: functional; conditions: route intraperitoneal
# [4] = tested on: Rattus norvegicus; assay: Antiamnesic activity in scopolamine-induced memory deficit rat assessed as training trial latency time at 1.0 mg/kg, ip; format: functional; conditions: route intraperitoneal
# [5] = tested on: Rattus norvegicus; assay: Antiamnesic activity in scopolamine-induced memory deficit rat assessed as training trial latency time at 100 mg/kg, ip; format: functional; conditions: route intraperitoneal
# [6] = tested on: Rattus norvegicus; assay: Antiamnesic activity in scopolamine-induced memory deficit rat assessed as retention trial latency time at 0.02 mg/kg, ip after 24 hrs; format: functional; conditions: route intraperitoneal
# [7] = tested on: Rattus norvegicus; assay: Antiamnesic activity in scopolamine-induced memory deficit rat assessed as retention trial latency time at 1.0 mg/kg, ip after 24 hrs; format: functional; conditions: route intraperitoneal
# [8] = tested on: Rattus norvegicus; assay: Antiamnesic activity in scopolamine-induced memory deficit rat assessed as retention trial latency time at 100 mg/kg, ip after 24 hrs; format: functional; conditions: route intraperitoneal
# [9] = tested on: Rattus norvegicus; assay: Antiamnesic activity in scopolamine-induced memory deficit rat assessed as training trial time at 0.024 mg/kg, ip; format: functional; conditions: route intraperitoneal
# [10] = tested on: Rattus norvegicus; assay: Antiamnesic activity in scopolamine-induced memory deficit rat assessed as training trial latency time at 0.24 mg/kg, ip; format: functional; conditions: route intraperitoneal
# [11] = tested on: Rattus norvegicus; assay: Antiamnesic activity in scopolamine-induced memory deficit rat assessed as training trial latency time at 1.2 mg/kg, ip; format: functional; conditions: route intraperitoneal
# [12] = tested on: Rattus norvegicus; assay: Antiamnesic activity in scopolamine-induced memory deficit rat assessed as training trial latency time at 2.4 mg/kg, ip; format: functional; conditions: route intraperitoneal
# [13] = tested on: Rattus norvegicus; assay: Antiamnesic activity in scopolamine-induced memory deficit rat assessed as retention trial latency time at 0.024 mg/kg, ip after 24 hrs; format: functional; conditions: route intraperitoneal
# [14] = tested on: Rattus norvegicus; assay: Antiamnesic activity in scopolamine-induced memory deficit rat assessed as retention trial latency time at 0.24 mg/kg, ip after 24 hrs; format: functional; conditions: route intraperitoneal
# [15] = tested on: Rattus norvegicus; assay: Antiamnesic activity in scopolamine-induced memory deficit rat assessed as retention trial latency time at 1.2 mg/kg, ip after 24 hrs; format: functional; conditions: route intraperitoneal
# [16] = tested on: Rattus norvegicus; assay: Antiamnesic activity in scopolamine-induced memory deficit rat assessed as retention trial latency time at 2.4 mg/kg, ip after 24 hrs; format: functional; conditions: route intraperitoneal
# [17] = tested on: Rattus norvegicus; assay: Antiamnesic activity in scopolamine-induced memory deficit rat assessed as training trial latency time at 17.37 mg/kg, ip; format: functional; conditions: route intraperitoneal
# [18] = tested on: Rattus norvegicus; assay: Antiamnesic activity in scopolamine-induced memory deficit rat assessed as training trial latency time at 34.73 mg/kg, ip; format: functional; conditions: route intraperitoneal
# [19] = tested on: Rattus norvegicus; assay: Antiamnesic activity in scopolamine-induced memory deficit rat assessed as retention trial latency time at 17.37 mg/kg, ip after 24 hrs; format: functional; conditions: route intraperitoneal
# [20] = tested on: Rattus norvegicus; assay: Antiamnesic activity in scopolamine-induced memory deficit rat assessed as retention trial latency time at 34.73 mg/kg, ip after 24 hrs; format: functional; conditions: route intraperitoneal
# [21] = tested on: Rattus norvegicus; assay: Antiamnesic activity in scopolamine-induced memory deficit rat assessed as training trial latency time at 0.01 mg/kg, ip; format: functional; conditions: route intraperitoneal
# [22] = tested on: Rattus norvegicus; assay: Antiamnesic activity in scopolamine-induced memory deficit rat assessed as training trial latency time at 0.5 mg/kg, ip; format: functional; conditions: route intraperitoneal
# [23] = tested on: Rattus norvegicus; assay: Antiamnesic activity in scopolamine-induced memory deficit rat assessed as training trial latency time at 50 mg/kg, ip; format: functional; conditions: route intraperitoneal
# [24] = tested on: Rattus norvegicus; assay: Antiamnesic activity in scopolamine-induced memory deficit rat assessed as retention trial latency time at 0.01 mg/kg, ip after 24 hrs; format: functional; conditions: route intraperitoneal
# [25] = tested on: Rattus norvegicus; assay: Antiamnesic activity in scopolamine-induced memory deficit rat assessed as retention trial latency time at 0.5 mg/kg, ip after 24 hrs; format: functional; conditions: route intraperitoneal
# [26] = tested on: Rattus norvegicus; assay: Antiamnesic activity in scopolamine-induced memory deficit rat assessed as retention trial latency time at 50 mg/kg, ip after 24 hrs; format: functional; conditions: route intraperitoneal
# [27] = tested on: Rattus norvegicus; assay: Antiamnesic activity in scopolamine-induced memory deficit rat assessed as training trial latency time at 0.001 mg/kg, ip; format: functional; conditions: route intraperitoneal
# [28] = tested on: Rattus norvegicus; assay: Antiamnesic activity in scopolamine-induced memory deficit rat assessed as training trial latency time at 0.005 mg/kg, ip; format: functional; conditions: route intraperitoneal
# [29] = tested on: Rattus norvegicus; assay: Antiamnesic activity in scopolamine-induced memory deficit rat assessed as training trial latency time at 0.1 mg/kg, ip; format: functional; conditions: route intraperitoneal
# [30] = tested on: Rattus norvegicus; assay: Antiamnesic activity in scopolamine-induced memory deficit rat assessed as retention trial latency time at 0.001 mg/kg, ip after 24 hrs; format: functional; conditions: route intraperitoneal
# [31] = tested on: Rattus norvegicus; assay: Antiamnesic activity in scopolamine-induced memory deficit rat assessed as retention trial latency time at 0.005 mg/kg, ip after 24 hrs; format: functional; conditions: route intraperitoneal
# [32] = tested on: Rattus norvegicus; assay: Antiamnesic activity in scopolamine-induced memory deficit rat assessed as retention trial latency time at 0.1 mg/kg, ip after 24 hrs; format: functional; conditions: route intraperitoneal
# Sequence of Cholinesterase (P06276 whole entry): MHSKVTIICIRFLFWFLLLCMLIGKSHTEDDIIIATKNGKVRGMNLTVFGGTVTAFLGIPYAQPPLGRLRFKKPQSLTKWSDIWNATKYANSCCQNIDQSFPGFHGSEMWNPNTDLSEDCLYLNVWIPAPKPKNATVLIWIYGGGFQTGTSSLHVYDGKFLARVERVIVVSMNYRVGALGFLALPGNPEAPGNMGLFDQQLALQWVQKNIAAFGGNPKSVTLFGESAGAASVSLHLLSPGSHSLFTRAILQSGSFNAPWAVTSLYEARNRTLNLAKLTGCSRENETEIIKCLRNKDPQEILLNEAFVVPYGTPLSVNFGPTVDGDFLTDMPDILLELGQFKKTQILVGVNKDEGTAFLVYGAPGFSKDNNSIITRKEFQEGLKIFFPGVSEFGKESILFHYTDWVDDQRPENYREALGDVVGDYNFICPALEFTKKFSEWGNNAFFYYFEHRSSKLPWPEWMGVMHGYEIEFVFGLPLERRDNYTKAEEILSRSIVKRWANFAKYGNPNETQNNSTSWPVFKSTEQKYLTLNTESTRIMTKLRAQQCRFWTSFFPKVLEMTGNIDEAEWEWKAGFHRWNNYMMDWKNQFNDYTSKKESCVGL
# Sequence of Acetylcholinesterase (P22303 whole entry): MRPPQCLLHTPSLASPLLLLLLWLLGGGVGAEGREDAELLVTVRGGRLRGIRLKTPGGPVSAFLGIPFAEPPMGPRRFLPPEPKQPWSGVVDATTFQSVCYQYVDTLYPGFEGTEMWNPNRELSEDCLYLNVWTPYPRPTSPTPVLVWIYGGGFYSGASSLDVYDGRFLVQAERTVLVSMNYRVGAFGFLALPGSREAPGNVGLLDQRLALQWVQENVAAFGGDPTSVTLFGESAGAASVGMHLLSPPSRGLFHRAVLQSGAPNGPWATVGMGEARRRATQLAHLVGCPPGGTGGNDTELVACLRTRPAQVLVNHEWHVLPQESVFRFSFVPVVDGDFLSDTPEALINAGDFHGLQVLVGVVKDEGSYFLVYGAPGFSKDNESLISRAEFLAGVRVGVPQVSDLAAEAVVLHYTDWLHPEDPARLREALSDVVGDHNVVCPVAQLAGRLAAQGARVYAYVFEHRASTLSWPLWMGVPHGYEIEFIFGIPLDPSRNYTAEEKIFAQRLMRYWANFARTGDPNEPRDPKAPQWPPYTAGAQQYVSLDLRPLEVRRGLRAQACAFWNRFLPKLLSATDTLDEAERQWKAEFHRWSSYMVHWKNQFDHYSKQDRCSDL
smiles,measurement,setting,value
C[N+](C)(C)CCOC(=O)Nc1ccncc1.[I-],pKi,[1],3.80
same,pKi,[2],3.12
same,Time,[3],37.3 s
same,Time,[4],21.4 s
same,Time,[5],30.6 s
same,Time,[6],40.4 s
same,Time,[7],21 s
same,Time,[8],21.3 s
C[N+](C)(C)CCOC(=O)Nc1ccncc1Br,pKi,[1],3.94
same,pKi,[2],3.56
C[N+](C)(C)CCOC(=O)Nc1cc(Cl)nc(Cl)c1.[I-],pKi,[1],4.19
same,pKi,[2],4.71
same,Time,[9],14.4 s
same,Time,[10],19.7 s
same,Time,[11],21.4 s
same,Time,[12],19 s
same,Time,[13],36.8 s
same,Time,[14],56.9 s
same,Time,[15],92.9 s
same,Time,[16],32.3 s
CC(C)(C)C(=O)OCC[N+](C)(C)C.CC(C)(C)C(=O)[O-],Time,[17],38.8 s
same,Time,[18],14.5 s
same,Time,[19],36.8 s
same,Time,[20],45.8 s
CN(C)CCOC(=O)Nc1ccnc(Cl)c1,pKi,[1],3.68
same,pKi,[2],3.42
CN(C)CCOC(=O)Nc1ccncc1Br,pKi,[1],3.50
same,pKi,[2],3.56
CN(C)CCOC(=O)Nc1ccncc1,pKi,[1],3.50
same,pKi,[2],4.69
same,Time,[21],20.3 s
same,Time,[22],43.6 s
same,Time,[23],25.5 s
same,Time,[24],12.1 s
same,Time,[25],49.7 s
same,Time,[26],39.6 s
C[N+](C)(C)CCOC(=O)Nc1ccnc(Cl)c1,pKi,[1],3.82
same,pKi,[2],3.79
CN(C)CCOC(=O)Nc1cc(Cl)nc(Cl)c1,pKi,[1],3.85
same,pKi,[2],3.76
Nc1ccncc1 [DALFAMPRIDINE],Time,[27],20.8 s
same,Time,[28],22.1 s
same,Time,[21],46.3 s
same,Time,[29],20.3 s
same,Time,[30],38.5 s
same,Time,[31],92.3 s
same,Time,[24],63.5 s
same,Time,[32],33.6 s
